Measured values: ChEMBL document CHEMBL3611975, “New carbocyclic N(6)-substituted adenine and pyrimidine nucleoside analogues with a bicyclo[2.2.1]heptane fragment as sugar moiety; synthesis, antiviral, anticancer activity and X-ray crystallography” (Bioorg Med Chem, 2015)

Experiments:
[1] = Cytotoxicity against MDCK cells assessed as cell viability after 48 hrs by MTT assay; format: cell-based, Canis lupus familiaris; conditions: dog, read-out: CTD50
[2] = Cytotoxicity against African green monkey Vero cells assessed as cell viability after 72 hrs by MTT assay; format: cell-based; conditions: chlorocebus sabaeus, read-out: CTD50
Coxsackievirus B4 = experiment: Antiviral activity against Human coxsackievirus B4 Powers infected in African green monkey Vero cells assessed as decrease in virus titer after 72 hrs by MTT assay; format: functional, organism-based; conditions: Enterovirus B
SR = experiment: Cytotoxicity against human SR cells assessed as growth at 10^-5 M relative to control
M14 = experiment: Cytotoxicity against human M14 cells assessed as growth at 10^-5 M relative to control
K562 = experiment: Cytotoxicity against human K562 cells assessed as growth at 10^-5 M relative to control
A549 = experiment: Cytotoxicity against human A549 cells assessed as growth at 10^-5 M relative to control
A498 = experiment: Cytotoxicity against human A498 cells assessed as growth at 10^-5 M relative to control
ACHN = experiment: Cytotoxicity against human ACHN cells assessed as growth at 10^-5 M relative to control
UO-31 = experiment: Cytotoxicity against human UO31 cells assessed as growth at 10^-5 M relative to control
T47D = experiment: Cytotoxicity against human T47D cells assessed as growth at 10^-5 M relative to control
MOLT-4 = experiment: Cytotoxicity against human MOLT4 cells assessed as growth at 10^-5 M relative to control
HOP-62 = experiment: Cytotoxicity against human HOP62 cells assessed as growth at 10^-5 M relative to control
HOP-92 = experiment: Cytotoxicity against human HOP92 cells assessed as growth at 10^-5 M relative to control
HT-29 = experiment: Cytotoxicity against human HT-29 cells assessed as growth at 10^-5 M relative to control
SF-268 = experiment: Cytotoxicity against human SF268 cells assessed as growth at 10^-5 M relative to control
SF-539 = experiment: Cytotoxicity against human SF539 cells assessed as growth at 10^-5 M relative to control
SNB-19 = experiment: Cytotoxicity against human SNB19 cells assessed as growth at 10^-5 M relative to control
SNB-75 = experiment: Cytotoxicity against human SNB75 cells assessed as growth at 10^-5 M relative to control
SK-OV-3 = experiment: Cytotoxicity against human SKOV3 cells assessed as growth at 10^-5 M relative to control
786-0 = experiment: Cytotoxicity against human 786-0 cells assessed as growth at 10^-5 M relative to control
DU-145 = experiment: Cytotoxicity against human DU145 cells assessed as growth at 10^-5 M relative to control
HCT-116 = experiment: Cytotoxicity against human HCT116 cells assessed as growth at 10^-5 M relative to control
UACC-62 = experiment: Cytotoxicity against human UACC62 cells assessed as growth at 10^-5 M relative to control
OVCAR-4 = experiment: Cytotoxicity against human OVCAR4 cells assessed as growth at 10^-5 M relative to control
OVCAR-5 = experiment: Cytotoxicity against human OVCAR5 cells assessed as growth at 10^-5 M relative to control
OVCAR-8 = experiment: Cytotoxicity against human OVCAR8 cells assessed as growth at 10^-5 M relative to control
RXF 393 = experiment: Cytotoxicity against human RXF393 cells assessed as growth at 10^-5 M relative to control
NCI-H23 = experiment: Cytotoxicity against human NCI-H23 cells assessed as growth at 10^-5 M relative to control
COLO 205 = experiment: Cytotoxicity against human COLO205 cells assessed as growth at 10^-5 M relative to control
HCC 2998 = experiment: Cytotoxicity against human HCC2998 cells assessed as growth at 10^-5 M relative to control
LOX IMVI = experiment: Cytotoxicity against human LOXIMVI cells assessed as growth at 10^-5 M relative to control
UACC-257 = experiment: Cytotoxicity against human UACC257 cells assessed as growth at 10^-5 M relative to control
RPMI-8226 = experiment: Cytotoxicity against human RPMI8226 cells assessed as growth at 10^-5 M relative to control
NCI-H460 = experiment: Cytotoxicity against human NCI-H460 cells assessed as growth at 10^-5 M relative to control
Malme-3M = experiment: Cytotoxicity against human MALME-3M cells assessed as growth at 10^-5 M relative to control
SK-MEL-2 = experiment: Cytotoxicity against human SK-MEL-2 cells assessed as growth at 10^-5 M relative to control
SK-MEL-5 = experiment: Cytotoxicity against human SK-MEL-5 cells assessed as growth at 10^-5 M relative to control
SK-MEL-28 = experiment: Cytotoxicity against human SK-MEL-28 cells assessed as growth at 10^-5 M relative to control
NCI/ADR-RES = experiment: Cytotoxicity against human NCI/ADR-RES cells assessed as growth at 10^-5 M relative to control

OC[C@H]1[C@@H]2C[C@H](n3cnc4c(NCCc5ccccc5)ncnc43)[C@H]1C[C@@H]2Cl
CC50 at 48 h [1]: 143 µM | CC50 at 72 h [2]: 14 µM | EC50 (Coxsackievirus B4): 4 µM | growth, % of control at 10 µM (SR): 84.1% | growth, % of control at 10 µM (M14): 101% | growth, % of control at 10 µM (K562): 91.1% | growth, % of control at 10 µM (A549): 92.6% | growth, % of control at 10 µM (A498): 95.5% | growth, % of control at 10 µM (ACHN): 97.8% | growth, % of control at 10 µM (UO-31): 73.8% | growth, % of control at 10 µM (T47D): 86.8% | growth, % of control at 10 µM (MOLT-4): 83.3% | growth, % of control at 10 µM (HOP-62): 94.2% | growth, % of control at 10 µM (HOP-92): 92.4% | growth, % of control at 10 µM (HT-29): 95.3% | growth, % of control at 10 µM (SF-268): 101% | growth, % of control at 10 µM (SF-539): 98.2% | growth, % of control at 10 µM (SNB-19): 107% | growth, % of control at 10 µM (SNB-75): 106% | growth, % of control at 10 µM (SK-OV-3): 103% | growth, % of control at 10 µM (786-0): 97% | growth, % of control at 10 µM (DU-145): 98% | growth, % of control at 10 µM (HCT-116): 101% | growth, % of control at 10 µM (UACC-62): 93.1% | growth, % of control at 10 µM (OVCAR-4): 93.6% | growth, % of control at 10 µM (OVCAR-5): 104% | growth, % of control at 10 µM (OVCAR-8): 95.7% | growth, % of control at 10 µM (RXF 393): 87% | growth, % of control at 10 µM (NCI-H23): 93.2% | growth, % of control at 10 µM (COLO 205): 99.3% | growth, % of control at 10 µM (HCC 2998): 89.8% | growth, % of control at 10 µM (LOX IMVI): 92.7% | growth, % of control at 10 µM (UACC-257): 103% | growth, % of control at 10 µM (RPMI-8226): 87.9% | growth, % of control at 10 µM (NCI-H460): 108% | growth, % of control at 10 µM (Malme-3M): 102% | growth, % of control at 10 µM (SK-MEL-2): 97.2% | growth, % of control at 10 µM (SK-MEL-5): 73.9% | growth, % of control at 10 µM (SK-MEL-28): 107% | growth, % of control at 10 µM (NCI/ADR-RES): 88.2%

COc1ccc(CCNc2ncnc3c2ncn3[C@H]2C[C@H]3[C@H](CO)[C@@H]2C[C@@H]3Cl)cc1
CC50 at 48 h [1]: 350 µM | CC50 at 72 h [2]: 14 µM | EC50 (Coxsackievirus B4): > 9 µM | growth, % of control at 10 µM (SR): 86.7% | growth, % of control at 10 µM (M14): 98.3% | growth, % of control at 10 µM (K562): 82.8% | growth, % of control at 10 µM (A549): 83.3% | growth, % of control at 10 µM (A498): 99.9% | growth, % of control at 10 µM (ACHN): 97.7% | growth, % of control at 10 µM (UO-31): 81% | growth, % of control at 10 µM (T47D): 66.1% | growth, % of control at 10 µM (MOLT-4): 103% | growth, % of control at 10 µM (HOP-62): 107% | growth, % of control at 10 µM (HOP-92): 114% | growth, % of control at 10 µM (HT-29): 87.9% | growth, % of control at 10 µM (SF-268): 97.7% | growth, % of control at 10 µM (SF-539): 95.1% | growth, % of control at 10 µM (SNB-19): 107% | growth, % of control at 10 µM (SNB-75): 92.8% | growth, % of control at 10 µM (SK-OV-3): 106% | growth, % of control at 10 µM (786-0): 101% | growth, % of control at 10 µM (DU-145): 105% | growth, % of control at 10 µM (HCT-116): 100% | growth, % of control at 10 µM (UACC-62): 99.6% | growth, % of control at 10 µM (OVCAR-4): 94.3% | growth, % of control at 10 µM (OVCAR-5): 97.7% | growth, % of control at 10 µM (OVCAR-8): 101% | growth, % of control at 10 µM (RXF 393): 104% | growth, % of control at 10 µM (NCI-H23): 102% | growth, % of control at 10 µM (COLO 205): 113% | growth, % of control at 10 µM (HCC 2998): 97.2% | growth, % of control at 10 µM (LOX IMVI): 96.7% | growth, % of control at 10 µM (UACC-257): 99.4% | growth, % of control at 10 µM (RPMI-8226): 82.5% | growth, % of control at 10 µM (NCI-H460): 106% | growth, % of control at 10 µM (Malme-3M): 98.2% | growth, % of control at 10 µM (SK-MEL-2): 101% | growth, % of control at 10 µM (SK-MEL-5): 87% | growth, % of control at 10 µM (SK-MEL-28): 104% | growth, % of control at 10 µM (NCI/ADR-RES): 86.5%

CCOc1ncnc2c1ncn2[C@H]1C[C@H]2[C@H](CO)[C@@H]1C[C@@H]2Cl
CC50 at 48 h [1]: > 1020 µM | CC50 at 72 h [2]: 208 µM | EC50 (Coxsackievirus B4): > 102 µM | growth, % of control at 10 µM (SR): 97.5% | growth, % of control at 10 µM (M14): 111% | growth, % of control at 10 µM (K562): 101% | growth, % of control at 10 µM (A549): 99% | growth, % of control at 10 µM (A498): 88.8% | growth, % of control at 10 µM (ACHN): 99% | growth, % of control at 10 µM (UO-31): 88.1% | growth, % of control at 10 µM (T47D): 103% | growth, % of control at 10 µM (MOLT-4): 111% | growth, % of control at 10 µM (HOP-62): 106% | growth, % of control at 10 µM (HOP-92): 124% | growth, % of control at 10 µM (HT-29): 96.5% | growth, % of control at 10 µM (SF-268): 98% | growth, % of control at 10 µM (SF-539): 102% | growth, % of control at 10 µM (SNB-19): 115% | growth, % of control at 10 µM (SNB-75): 83.1% | growth, % of control at 10 µM (SK-OV-3): 128% | growth, % of control at 10 µM (786-0): 108% | growth, % of control at 10 µM (DU-145): 105% | growth, % of control at 10 µM (HCT-116): 105% | growth, % of control at 10 µM (UACC-62): 104% | growth, % of control at 10 µM (OVCAR-4): 108% | growth, % of control at 10 µM (OVCAR-5): 92.5% | growth, % of control at 10 µM (OVCAR-8): 106% | growth, % of control at 10 µM (RXF 393): 106% | growth, % of control at 10 µM (NCI-H23): 87.9% | growth, % of control at 10 µM (COLO 205): 119% | growth, % of control at 10 µM (HCC 2998): 98.9% | growth, % of control at 10 µM (LOX IMVI): 90.9% | growth, % of control at 10 µM (UACC-257): 106% | growth, % of control at 10 µM (RPMI-8226): 121% | growth, % of control at 10 µM (NCI-H460): 108% | growth, % of control at 10 µM (Malme-3M): 96% | growth, % of control at 10 µM (SK-MEL-2): 108% | growth, % of control at 10 µM (SK-MEL-5): 100% | growth, % of control at 10 µM (SK-MEL-28): 100% | growth, % of control at 10 µM (NCI/ADR-RES): 90.8%
